The source of these data is the supplement of paper PMC10307832.

What all share (assay): relative viability (nuclei count vs DMSO), 5 days (fraction); higher = more cells survive
Compound in the experiment “Fedratinib + Tozasertib”: Cc1cnc(Nc2ccc(OCCN3CCCC3)cc2)nc1Nc1cccc(S(=O)(=O)NC(C)(C)C)c1 [Fedratinib] + Cc1cc(Nc2cc(N3CCN(C)CC3)nc(Sc3ccc(NC(=O)C4CC4)cc3)n2)n[nH]1 [Tozasertib] (partner 0.1 µM)
Put shortly:
(§1)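 A single step with final 0.05% Triton X-100, 1% formaldehyde and 1 ug/ml Hoechst fixed the cells and stained nuclei 5 days after treatment. Lung cancer cell lines in 1536-well plates had been treated by pin tool the day after seeding with one drug alone or a fixed anchor-drug dose plus five library-drug doses (not always all listed) in √10 steps, and nuclei were counted on 4× images. Relative viability is the ratio of nuclei in treated wells to nuclei in vehicle wells, taken as the median of duplicate plates.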

Compound in the experiment “Fedratinib + Alpelisib”: Cc1cnc(Nc2ccc(OCCN3CCCC3)cc2)nc1Nc1cccc(S(=O)(=O)NC(C)(C)C)c1 [Fedratinib] + Cc1nc(NC(=O)N2CCC[C@H]2C(N)=O)sc1-c1ccnc(C(C)(C)C(F)(F)F)c1 [Alpelisib] (partner 2 µM)
Put shortly:
as §1

Compound in the experiment “Fedratinib + Vorinostat”: Cc1cnc(Nc2ccc(OCCN3CCCC3)cc2)nc1Nc1cccc(S(=O)(=O)NC(C)(C)C)c1 [Fedratinib] + O=C(CCCCCCC(=O)Nc1ccccc1)NO [Vorinostat] (partner 1 µM)
The essentials: as §1

Compound in the experiment “GW-2580 + Phenformin”: COC1=CC=C(C=C1)COC2=C(C=C(C=C2)CC3=CN=C(N=C3N)N)OC [GW-2580] + N=C(N)NC(=N)NCCc1ccccc1 [Phenformin] (partner 250 µM)
The essentials:
as §1

Compound in the experiment “Fedratinib + Pictilisib”: Cc1cnc(Nc2ccc(OCCN3CCCC3)cc2)nc1Nc1cccc(S(=O)(=O)NC(C)(C)C)c1 [Fedratinib] + CS(=O)(=O)N1CCN(Cc2cc3nc(-c4cccc5[nH]ncc45)nc(N4CCOCC4)c3s2)CC1 [Pictilisib] (partner 1 µM)
The essentials: as §1

Compound in the experiment “Fedratinib + Palbociclib”: Cc1cnc(Nc2ccc(OCCN3CCCC3)cc2)nc1Nc1cccc(S(=O)(=O)NC(C)(C)C)c1 [Fedratinib] + CC(=O)c1c(C)c2cnc(Nc3ccc(N4CCNCC4)cn3)nc2n(C2CCCC2)c1=O [Palbociclib] (partner 0.5 µM)
The essentials: as §1

As to NCI-H838, the relative viability with Fedratinib + Tozasertib (first compound 0.1 µM) came to 0.248; in the experiment with Fedratinib + Tozasertib (first compound 0.3162 µM) it was 0.271; with Fedratinib + Tozasertib (first compound 1 µM), 0.21; in the experiment with Fedratinib + Alpelisib (first compound 0.1 µM), 0.979; with Fedratinib + Alpelisib (first compound 0.3162 µM), 0.954; in the experiment with Fedratinib + Alpelisib (first compound 1 µM) it was 0.954. In addition, the relative viability was found to be 0.713 with Fedratinib + Vorinostat (first compound 0.1 µM); 0.693 with Fedratinib + Vorinostat (first compound 0.3162 µM); 0.575 with Fedratinib + Vorinostat (first compound 1 µM); 0.651 in the experiment with GW-2580 + Phenformin (first compound 0.08 µM); 0.59 with GW-2580 + Phenformin (first compound 0.8 µM); 0.549 in the experiment with GW-2580 + Phenformin (first compound 2.53 µM). The relative viability with GW-2580 + Phenformin (first compound 8 µM) was found to be 0.648; in the experiment with Fedratinib + Pictilisib (first compound 0.1 µM) it was 0.449; in the experiment with Fedratinib + Pictilisib (first compound 0.3162 µM) it was 0.47; in the experiment with Fedratinib + Pictilisib (first compound 1 µM), 0.213; with Fedratinib + Palbociclib (first compound 0.1 µM), 0.197; with Fedratinib + Palbociclib (first compound 0.3162 µM), 0.228. In addition, the relative viability in the experiment with Fedratinib + Palbociclib (first compound 1 µM) stood at 0.164.
With NCI-H1355, the relative viability turned out to be 0.325 with Fedratinib + Tozasertib (first compound 0.1 µM); 0.593 with Fedratinib + Tozasertib (first compound 0.3162 µM); 0.421 in the experiment with Fedratinib + Tozasertib (first compound 1 µM); 0.731 with Fedratinib + Alpelisib (first compound 0.1 µM); 0.853 in the experiment with Fedratinib + Alpelisib (first compound 0.3162 µM); 0.832 with Fedratinib + Alpelisib (first compound 1 µM). The relative viability worked out at 0.688 with Fedratinib + Vorinostat (first compound 0.1 µM); 0.622 with Fedratinib + Vorinostat (first compound 0.3162 µM); 0.596 with Fedratinib + Vorinostat (first compound 1 µM); 0.426 in the experiment with GW-2580 + Phenformin (first compound 0.08 µM); 0.496 with GW-2580 + Phenformin (first compound 0.8 µM); 0.347 with GW-2580 + Phenformin (first compound 2.53 µM). Moreover, the relative viability in the experiment with GW-2580 + Phenformin (first compound 8 µM) amounted to 0.397; with Fedratinib + Pictilisib (first compound 0.1 µM) it was 0.366; with Fedratinib + Pictilisib (first compound 0.3162 µM), 0.437; with Fedratinib + Pictilisib (first compound 1 µM), 0.382; in the experiment with Fedratinib + Palbociclib (first compound 0.1 µM), 0.412; with Fedratinib + Palbociclib (first compound 0.3162 µM) it was 0.396. Further, the relative viability in the experiment with Fedratinib + Palbociclib (first compound 1 µM) was 0.385.
Consider NCI-H1395, for which the relative viability with Fedratinib + Tozasertib (first compound 0.1 µM) came to 0.623; in the experiment with Fedratinib + Tozasertib (first compound 0.3162 µM) it was 0.874; with Fedratinib + Tozasertib (first compound 1 µM), 0.653; in the experiment with Fedratinib + Alpelisib (first compound 0.1 µM), 0.885; with Fedratinib + Alpelisib (first compound 0.3162 µM) it was 1; in the experiment with Fedratinib + Alpelisib (first compound 1 µM), 1.39. The relative viability was found to be 0.588 with Fedratinib + Vorinostat (first compound 0.1 µM); 0.807 with Fedratinib + Vorinostat (first compound 0.3162 µM); 0.561 in the experiment with Fedratinib + Vorinostat (first compound 1 µM); 0.452 with GW-2580 + Phenformin (first compound 0.08 µM); 0.484 in the experiment with GW-2580 + Phenformin (first compound 0.8 µM); 0.421 with GW-2580 + Phenformin (first compound 2.53 µM). For the same cell line, the relative viability with GW-2580 + Phenformin (first compound 8 µM) turned out to be 0.438; in the experiment with Fedratinib + Pictilisib (first compound 0.1 µM), 0.515; with Fedratinib + Pictilisib (first compound 0.3162 µM), 0.642; in the experiment with Fedratinib + Pictilisib (first compound 1 µM), 0.469; with Fedratinib + Palbociclib (first compound 0.1 µM), 0.599; with Fedratinib + Palbociclib (first compound 0.3162 µM), 0.561. Also, the relative viability in the experiment with Fedratinib + Palbociclib (first compound 1 µM) came to 0.493.
On to NCI-H1437, for which the relative viability came out at 0.398 in the experiment with Fedratinib + Tozasertib (first compound 0.1 µM); 0.417 with Fedratinib + Tozasertib (first compound 0.3162 µM); 0.368 with Fedratinib + Tozasertib (first compound 1 µM); 0.826 with Fedratinib + Alpelisib (first compound 0.1 µM); 0.975 in the experiment with Fedratinib + Alpelisib (first compound 0.3162 µM); 0.859 in the experiment with Fedratinib + Alpelisib (first compound 1 µM). The relative viability with Fedratinib + Vorinostat (first compound 0.1 µM) stood at 0.816; with Fedratinib + Vorinostat (first compound 0.3162 µM), 0.892; with Fedratinib + Vorinostat (first compound 1 µM), 0.922; with GW-2580 + Phenformin (first compound 0.08 µM) it was 0.339; with GW-2580 + Phenformin (first compound 0.8 µM) it was 0.31; in the experiment with GW-2580 + Phenformin (first compound 2.53 µM), 0.332. Also, the relative viability was 0.357 with GW-2580 + Phenformin (first compound 8 µM); 0.339 with Fedratinib + Pictilisib (first compound 0.1 µM); 0.528 in the experiment with Fedratinib + Pictilisib (first compound 0.3162 µM); 0.119 in the experiment with Fedratinib + Pictilisib (first compound 1 µM); 0.264 with Fedratinib + Palbociclib (first compound 0.1 µM); 0.308 with Fedratinib + Palbociclib (first compound 0.3162 µM). Besides, the relative viability with Fedratinib + Palbociclib (first compound 1 µM) is 0.293.
For NCI-H1651, the relative viability with Fedratinib + Tozasertib (first compound 0.1 µM) turned out to be 0.537; with Fedratinib + Tozasertib (first compound 0.3162 µM) it was 0.616; with Fedratinib + Tozasertib (first compound 1 µM), 0.623; with Fedratinib + Alpelisib (first compound 0.1 µM), 1.16; in the experiment with Fedratinib + Alpelisib (first compound 0.3162 µM), 1.01; with Fedratinib + Alpelisib (first compound 1 µM) it was 0.9. Besides, the relative viability worked out at 0.498 in the experiment with Fedratinib + Vorinostat (first compound 0.1 µM); 0.567 with Fedratinib + Vorinostat (first compound 0.3162 µM); 0.552 with Fedratinib + Vorinostat (first compound 1 µM); 0.36 with GW-2580 + Phenformin (first compound 0.08 µM); 0.371 with GW-2580 + Phenformin (first compound 0.8 µM); 0.304 with GW-2580 + Phenformin (first compound 2.53 µM). The relative viability came out at 0.358 with GW-2580 + Phenformin (first compound 8 µM); 0.566 with Fedratinib + Pictilisib (first compound 0.1 µM); 0.591 with Fedratinib + Pictilisib (first compound 0.3162 µM); 0.0696 with Fedratinib + Pictilisib (first compound 1 µM); 0.49 with Fedratinib + Palbociclib (first compound 0.1 µM); 0.485 with Fedratinib + Palbociclib (first compound 0.3162 µM). Also, the relative viability with Fedratinib + Palbociclib (first compound 1 µM) is 0.508.
Regarding NCI-H1666, the relative viability in the experiment with Fedratinib + Tozasertib (first compound 0.1 µM) stood at 0.558; in the experiment with Fedratinib + Tozasertib (first compound 0.3162 µM), 0.599; in the experiment with Fedratinib + Tozasertib (first compound 1 µM), 0.514; with Fedratinib + Alpelisib (first compound 0.1 µM), 0.872; with Fedratinib + Alpelisib (first compound 0.3162 µM), 1.05; in the experiment with Fedratinib + Alpelisib (first compound 1 µM), 1.02. In addition, the relative viability came out at 1.07 with Fedratinib + Vorinostat (first compound 0.1 µM); 1.1 with Fedratinib + Vorinostat (first compound 0.3162 µM); 0.928 with Fedratinib + Vorinostat (first compound 1 µM); 0.581 with GW-2580 + Phenformin (first compound 0.08 µM); 0.607 with GW-2580 + Phenformin (first compound 0.8 µM); 0.604 with GW-2580 + Phenformin (first compound 2.53 µM). The relative viability is 0.554 in the experiment with GW-2580 + Phenformin (first compound 8 µM); 0.409 with Fedratinib + Pictilisib (first compound 0.1 µM); 0.38 with Fedratinib + Pictilisib (first compound 0.3162 µM); 0.224 with Fedratinib + Pictilisib (first compound 1 µM); 0.636 in the experiment with Fedratinib + Palbociclib (first compound 0.1 µM); 0.657 in the experiment with Fedratinib + Palbociclib (first compound 0.3162 µM). Besides, the relative viability in the experiment with Fedratinib + Palbociclib (first compound 1 µM) stood at 0.629.
On to NCI-H1734, for which the relative viability worked out at 0.262 in the experiment with Fedratinib + Tozasertib (first compound 0.1 µM); 0.278 in the experiment with Fedratinib + Tozasertib (first compound 0.3162 µM); 0.243 with Fedratinib + Tozasertib (first compound 1 µM); 0.627 with Fedratinib + Alpelisib (first compound 0.1 µM); 0.654 in the experiment with Fedratinib + Alpelisib (first compound 0.3162 µM); 0.62 with Fedratinib + Alpelisib (first compound 1 µM). Besides, the relative viability with Fedratinib + Vorinostat (first compound 0.1 µM) is 1.07; with Fedratinib + Vorinostat (first compound 0.3162 µM), 0.796; with Fedratinib + Vorinostat (first compound 1 µM), 0.685; with GW-2580 + Phenformin (first compound 0.08 µM), 0.35; with GW-2580 + Phenformin (first compound 0.8 µM) it was 0.374; with GW-2580 + Phenformin (first compound 2.53 µM) it was 0.38. The relative viability is 0.359 with GW-2580 + Phenformin (first compound 8 µM); 0.443 in the experiment with Fedratinib + Pictilisib (first compound 0.1 µM); 0.479 with Fedratinib + Pictilisib (first compound 0.3162 µM); 0.142 with Fedratinib + Pictilisib (first compound 1 µM); 0.415 with Fedratinib + Palbociclib (first compound 0.1 µM); 0.344 with Fedratinib + Palbociclib (first compound 0.3162 µM). The relative viability with Fedratinib + Palbociclib (first compound 1 µM) is 0.334.
